Laboratory results from paper PMC10503797, “Allosteric modulator potentiates β2AR agonist–promoted bronchoprotection in asthma models” (The Journal of Clinical Investigation, 2023).
≈ marks a conversion by molar mass, not a printed value. Where “and” joins values, the source holds several entries; their conditions need not be identical. Identical values can stand only once.

What was measured:
murine WT β2AR = biological target: T1, murine WT β2AR (Mus musculus, UniProt P18762); assay: GloSensor cAMP, constitutive activity of overexpressed murine WT β2AR; type: cell-based
T1 construct: expressed in transfected cells; HEK293 GloSensor cells (cAMP assay)
T1 sequence (P18762 whole entry): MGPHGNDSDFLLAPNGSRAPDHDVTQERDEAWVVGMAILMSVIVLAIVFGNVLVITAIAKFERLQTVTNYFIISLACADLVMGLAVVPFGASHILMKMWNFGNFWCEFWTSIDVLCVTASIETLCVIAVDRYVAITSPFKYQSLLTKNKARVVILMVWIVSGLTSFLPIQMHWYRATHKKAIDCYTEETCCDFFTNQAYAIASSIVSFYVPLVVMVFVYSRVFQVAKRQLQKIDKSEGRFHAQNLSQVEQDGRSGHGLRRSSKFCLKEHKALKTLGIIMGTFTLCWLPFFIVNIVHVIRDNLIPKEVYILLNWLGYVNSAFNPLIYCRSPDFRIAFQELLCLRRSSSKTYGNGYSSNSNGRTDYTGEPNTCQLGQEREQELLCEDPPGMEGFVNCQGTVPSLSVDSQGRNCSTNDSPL

murine V133F mutant β2AR = biological target: T2, murine V133F mutant β2AR (Mus musculus, UniProt P18762, V133F); assay: GloSensor cAMP, constitutive activity of overexpressed murine V133F mutant β2AR; type: cell-based; conditions: Cmpd-6 at 5 μM, no orthosteric agonist
T2 construct: expressed in transfected cells; HEK293 GloSensor cells (cAMP assay)
T2 sequence (P18762 whole entry V133F): as the sequence (P18762 whole entry) above, with V133F counted along it

C57BL/6J naive mice [1] = assay: In vivo bronchoprotection protocol, methacholine-induced airway constriction (flexiVent); design: Newtonian resistance (Rn): unit not given here; conditions: for Newtonian resistance (Rn): Cmpd-6 10 mg/kg i.v., 10 mg/kg
Protocol: (§1) For the bronchoprotection protocol (A), bronchospasm was induced by i.v. administration of methacholine (25, 50, 100, 200, and 400 μg/kg). […] General Linear Model repeated measures ANOVA with Tukey’s posthoc test was used to determine the differences of airway responsiveness between DMSO- and Cmpd-6–treated conditions.
(§2) Airway hyperresponsiveness (AHR) was measured using the forced oscillation technique as described previously ([42]). […] For the bronchoprotection protocol, bronchospasm was induced by jugular vein i.v. administration of increasing doses of methacholine (25, 50, 100, 200, 400 μg/kg). […] Mice were ventilated with 100% oxygen at 150 breaths per minute, constant volume of 8 mL/kg and a 3 cm H2O positive end–expiratory pressure using a computer-controlled small animal ventilator (flexiVent, SCIREQ). The total lung impedance signal collected contained information about the resistance and elastance properties of the lung from which Newtonian resistance (Rn), a good indicator of the luminal diameter of the conducting airways, was calculated using the constant phase model. The heart rate data acquired using EKG electrodes was monitored to assess mouse viability and analgesia throughout the bronchoconstrictor protocols.

C57BL/6J naive mice [2] = assay: In vivo bronchodilation protocol, albuterol in methacholine-preconstricted airways (flexiVent); conditions: Cmpd-6 10 mg/kg i.v.; methacholine […] + albuterol 1-30 μg/kg
Protocol: as §1, §2

[3] = Solubility by formation of precipitates under the microscope; type: physicochemical
Protocol: *Solubility was determined by formation of precipitates observed under the microscope. **Cell […]
binds an intracellular region of the β2AR. ***Log P, Log of the Partition coefficient that was calculated using ChemDraw Professional (version 22.2, PerkinElmer). DMSO, dimethyl […]
(1 picture or pasted object on this page, not shown here)

WT murine β2AR = WT murine β2AR (Mus musculus, UniProt P18762); assay: 125I-CYP radioligand competition binding, WT murine β2AR; conditions: WT Cmpd-6
Chain of WT murine β2AR (P18762 whole entry): as the sequence (P18762 whole entry) above
Protocol: (§3) Statistical analyses were performed using 1-way ANOVA, repeated (related) measures with Tukey’s posthoc test.

V133F mutant murine β2AR = V133F mutant murine β2AR (Mus musculus, UniProt P18762, V133F); assay: 125I-CYP radioligand competition binding, V133F mutant murine β2AR; conditions: V133F Cmpd-6
Chain of V133F mutant murine β2AR (P18762 whole entry V133F): as the sequence (P18762 whole entry) above, with V133F counted along it
Protocol: as §3

guinea pig β2AR = guinea pig β2AR (Cavia porcellus, UniProt Q8K4Z4); assay: GloSensor cAMP, constitutive activity of overexpressed guinea pig β2AR
Chain of guinea pig β2AR (Q8K4Z4 whole entry): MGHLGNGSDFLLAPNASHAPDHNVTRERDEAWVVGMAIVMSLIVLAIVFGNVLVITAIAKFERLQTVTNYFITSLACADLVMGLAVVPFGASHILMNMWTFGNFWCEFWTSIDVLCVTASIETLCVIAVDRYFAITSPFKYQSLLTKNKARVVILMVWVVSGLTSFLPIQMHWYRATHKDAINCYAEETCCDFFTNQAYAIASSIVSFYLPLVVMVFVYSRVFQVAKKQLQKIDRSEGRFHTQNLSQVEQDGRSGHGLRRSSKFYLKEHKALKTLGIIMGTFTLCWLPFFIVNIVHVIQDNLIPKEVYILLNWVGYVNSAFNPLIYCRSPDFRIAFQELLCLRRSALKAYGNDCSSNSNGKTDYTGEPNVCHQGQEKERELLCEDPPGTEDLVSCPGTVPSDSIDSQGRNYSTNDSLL

## COc1ccc(Sc2ccc(S(=O)(=O)N(C)C(C)C)cc2C(=O)N[C@H](CC(N)=O)Cc2ccc(C(C)(C)C)cc2)cc1 [Cmpd-6]
Murine WT β2AR; Cmpd-6 at 5 μM, no orthosteric agonist, Murine WT
  cAMP level (% of ISO-stimulated maximal response): 25.8782% and 38.8997% and 33.0059% and 37.3496%
Murine WT β2AR; Species of β2AR: Murine
  cAMP, constitutive activity of overexpressed β2AR (Figure 4C): 25.8782 and 38.8997 and 33.0059 and 37.3496
Murine V133F mutant β2AR
  cAMP level (% of ISO-stimulated maximal response): 45.8463% and 58.5082% and 46.5958% and 56.3694%
C57BL/6J naive mice [1]; Cmpd-6 10 mg/kg i.v. 10 minutes before methacholine
  Bronchoprotective effect against methacholine-induced airway resistance: no bronchoprotective effect
C57BL/6J naive mice [1]; Mch 0 μg/kg
  Newtonian resistance (Rn): 0.362 and 0.310 and 0.287 and 0.300 and 0.311
C57BL/6J naive mice [1]; Mch 25 μg/kg
  Newtonian resistance (Rn): 0.550 and 0.482 and 0.346 and 0.471 and 0.465
C57BL/6J naive mice [1]; Mch 50 μg/kg
  Newtonian resistance (Rn): 0.728 and 0.671 and 0.387 and 0.670 and 0.609
C57BL/6J naive mice [1]; Mch 100 μg/kg
  Newtonian resistance (Rn): 0.886 and 0.904 and 0.565 and 0.976 and 0.931
C57BL/6J naive mice [1]; Mch 200 μg/kg
  Newtonian resistance (Rn): 1.570 and 1.261 and 0.919 and 1.518 and 1.725
C57BL/6J naive mice [1]; Mch 400 μg/kg
  Newtonian resistance (Rn): 1.986 and 1.405 and 1.093 and 1.461 and 1.642
C57BL/6J naive mice [2]
  Effect on albuterol-mediated bronchodilation: no enhancing effect
[3]; Aqueous
  Solubility: 0.032 mM (≈ 0.0196 mg/mL)
[3]; DMSO
  Solubility: 100 mM (≈ 61.2 mg/mL)
WT murine β2AR; log[ISO] -4 M
  125I-CYP binding (% of maximal): 0.36% and 0.2162% and 0.04816% and -0.00042%
WT murine β2AR; log[ISO] -4.49485 M
  125I-CYP binding (% of maximal): 1.8839% and 1.834% and 1.807% and 2.135%
WT murine β2AR; log[ISO] -5.09691 M
  125I-CYP binding (% of maximal): 4.237% and 3.492% and 3.782% and 5.55%
WT murine β2AR; log[ISO] -5.69897 M
  125I-CYP binding (% of maximal): 11.5444% and 11.0871% and 11.3959% and 13.7676%
WT murine β2AR; log[ISO] -6.30103 M
  125I-CYP binding (% of maximal): 26.4647% and 27.054% and 29.2061% and 34.2195%
WT murine β2AR; log[ISO] -6.90309 M
  125I-CYP binding (% of maximal): 53.3668% and 53.0846% and 55.6007% and 58.7138%
WT murine β2AR; log[ISO] -7.50515 M
  125I-CYP binding (% of maximal): 77.7987% and 78.0629% and 80.5466% and 83.0218%
WT murine β2AR; log[ISO] -8.10721 M
  125I-CYP binding (% of maximal): 94.1342% and 94.186% and 93.5984% and 92.8613%
WT murine β2AR; log[ISO] -8.70927 M
  125I-CYP binding (% of maximal): 97.914% and 99.3549% and 97.9296% and 99.6433%
WT murine β2AR; log[ISO] -9.31133 M
  125I-CYP binding (% of maximal): 100.454% and 99.5549% and 102.315% and 101.138%
WT murine β2AR; log[ISO] -9.91339 M
  125I-CYP binding (% of maximal): 102.683% and 102.302% and 101.203% and 102.316%
WT murine β2AR; no ISO competitor
  125I-CYP binding (% of maximal): 100.129% and 100.082% and 100.868% and 101.552%
V133F mutant murine β2AR; log[ISO] -4 M
  125I-CYP binding (% of maximal): 0.3208% and 0.5206% and 0.2622% and 0.2602%
V133F mutant murine β2AR; log[ISO] -4.49485 M
  125I-CYP binding (% of maximal): 0.9301% and 1.21% and 0.9752% and 0.9507%
V133F mutant murine β2AR; log[ISO] -5.09691 M
  125I-CYP binding (% of maximal): 1.3005% and 2.025% and 1.333% and 1.6451%
V133F mutant murine β2AR; log[ISO] -5.69897 M
  125I-CYP binding (% of maximal): 2.898% and 2.7378% and 2.508% and 2.41%
V133F mutant murine β2AR; log[ISO] -6.30103 M
  125I-CYP binding (% of maximal): 7.927% and 6.9353% and 6.15% and 6.231%
V133F mutant murine β2AR; log[ISO] -6.90309 M
  125I-CYP binding (% of maximal): 15.2419% and 14.4367% and 12.7613% and 13.8675%
V133F mutant murine β2AR; log[ISO] -7.50515 M
  125I-CYP binding (% of maximal): 33.0019% and 29.7875% and 27.3642% and 30.2603%
V133F mutant murine β2AR; log[ISO] -8.10721 M
  125I-CYP binding (% of maximal): 56.9542% and 53.726% and 49.4673% and 52.7312%
V133F mutant murine β2AR; log[ISO] -8.70927 M
  125I-CYP binding (% of maximal): 79.9915% and 78.4975% and 76.4167% and 78.5935%
V133F mutant murine β2AR; log[ISO] -9.31133 M
  125I-CYP binding (% of maximal): 94.8693% and 96.2982% and 94.9618% and 94.6481%
V133F mutant murine β2AR; log[ISO] -9.91339 M
  125I-CYP binding (% of maximal): 100.835% and 99.7406% and 98.19% and 100.221%
V133F mutant murine β2AR; no ISO competitor
  125I-CYP binding (% of maximal): 103.118% and 101.321% and 102.31% and 102.083%
Guinea pig β2AR; Species of β2AR: Guinea pig
  cAMP, constitutive activity of overexpressed β2AR (Figure 4C): 48.9693 and 55.2023 and 45.6589 and 55.6328
Guinea pig β2AR; no orthosteric agonist, 20 minutes
  PAM activity in cAMP production induced by constitutive activity of overexpressed guinea pig β2AR: equivalent to what we observed with the overexpressed human receptor
